Results taken from ChEMBL document CHEMBL1131797, “4-hydroxy-5,6-dihydro-2H-pyran-2-ones.3. Bicyclic and hetero-aromatic ring systems as 3-position scaffolds to bind to S1' and S2' of the HIV-1 protease enzyme” (Bioorg Med Chem Lett, 1999).
pEC50, pIC50, pKi: −log10 of the molar value.

How the values were obtained:
[1] = target: T1, Human immunodeficiency virus type 1 protease (Human immunodeficiency virus 1, UniProt Q72874); experiment: Inhibitory concentration against human immunodeficiency virus type 1(HIV-1) protease at pH 4.7
[2] = test system: CCRF-CEM; experiment: Antiviral activity was evaluated against HIV-infected CEM cells; format: functional, cell-based; settings: Homo sapiens
[3] = target: T1, Human immunodeficiency virus type 1 protease; experiment: Inhibitory activity was evaluated against human immunodeficiency virus type 1(HIV-1) protease at pH 6.2
[4] = target: T1, Human immunodeficiency virus type 1 protease; experiment: Inhibitory activity was evaluated against human immunodeficiency virus type 1(HIV-1) protease at pH 4.7

pIC50 [1]	pEC50 [2]	pIC50 [3]	pKi [4]	SMILES
6.30	4.21	–	–	CC(C)(C)n1c(SC2=C(O)OC(CCc3ccccc3)(c3ccccc3)CC2=O)nc2ccccc21 (configuration not stated)
8.05	4.66	6.89	–	CC(C)(C)c1cc2c(cc1SC1=C(O)OC(CCc3ccccc3)(c3ccccc3)CC1=O)CCC2 (configuration not stated)
7.74	5.00	6.68	–	CC(C)(C)c1oc2ccccc2c1SC1=C(O)OC(CCc2ccccc2)(c2ccccc2)CC1=O (configuration not stated)
7.96	4.51	6.68	–	CC(C)(C)c1c(SC2=C(O)OC(CCc3ccccc3)(c3ccccc3)CC2=O)oc2ccccc12 (configuration not stated)
–	6.30	9.00	–	Cc1cc(SC2=C(O)O[C@](CCc3ccc(O)cc3)(C(C)C)CC2=O)c(C(C)(C)C)cc1CO
6.54	< 4.14	–	–	O=C1CC(CCc2ccccc2)(c2ccccc2)OC(O)=C1Sc1cccs1 (configuration not stated)
–	4.34	–	–	Cc1ccc(C(C)(C)C)c(SC2=C(O)OC(CCc3ccccc3)(c3ccccc3)CC2=O)c1 (configuration not stated)
7.55	4.48	–	–	CC(C)(C)c1cc2c(cc1SC1=C(O)OC(CCc3ccccc3)(c3ccccc3)CC1=O)CCCC2 (configuration not stated)
8.15	< 4.18	7.77	–	CC(C)(C)c1c(SC2=C(O)OC(CCc3ccccc3)(c3ccccc3)CC2=O)sc2ccccc12 (configuration not stated)
7.55	< 4.19	–	–	CCc1c(SC2=C(O)OC(CCc3ccccc3)(c3ccccc3)CC2=O)sc2ccccc12 (configuration not stated)
–	6.00	> 9.00	> 10.00	CC(C)[C@]1(CCc2ccc(O)cc2)CC(=O)C(Sc2sc3ccccc3c2C(C)(C)C)=C(O)O1
6.44	< 4.00	–	–	O=C1CC(CCc2ccccc2)(c2ccccc2)OC(O)=C1Sc1cc2ccccc2s1 (configuration not stated)
6.71	< 4.00	–	–	Cc1ccsc1SC1=C(O)OC(CCc2ccccc2)(c2ccccc2)CC1=O (configuration not stated)
7.13	< 4.00	–	–	Cc1c(SC2=C(O)OC(CCc3ccccc3)(c3ccccc3)CC2=O)sc2ccccc12 (configuration not stated)
